The target of one experiment is T1, USP28 (Homo sapiens, UniProt Q96RU2).
T1 construct: purchased R&D Systems
T1 sequence (Q96RU2 1-1077): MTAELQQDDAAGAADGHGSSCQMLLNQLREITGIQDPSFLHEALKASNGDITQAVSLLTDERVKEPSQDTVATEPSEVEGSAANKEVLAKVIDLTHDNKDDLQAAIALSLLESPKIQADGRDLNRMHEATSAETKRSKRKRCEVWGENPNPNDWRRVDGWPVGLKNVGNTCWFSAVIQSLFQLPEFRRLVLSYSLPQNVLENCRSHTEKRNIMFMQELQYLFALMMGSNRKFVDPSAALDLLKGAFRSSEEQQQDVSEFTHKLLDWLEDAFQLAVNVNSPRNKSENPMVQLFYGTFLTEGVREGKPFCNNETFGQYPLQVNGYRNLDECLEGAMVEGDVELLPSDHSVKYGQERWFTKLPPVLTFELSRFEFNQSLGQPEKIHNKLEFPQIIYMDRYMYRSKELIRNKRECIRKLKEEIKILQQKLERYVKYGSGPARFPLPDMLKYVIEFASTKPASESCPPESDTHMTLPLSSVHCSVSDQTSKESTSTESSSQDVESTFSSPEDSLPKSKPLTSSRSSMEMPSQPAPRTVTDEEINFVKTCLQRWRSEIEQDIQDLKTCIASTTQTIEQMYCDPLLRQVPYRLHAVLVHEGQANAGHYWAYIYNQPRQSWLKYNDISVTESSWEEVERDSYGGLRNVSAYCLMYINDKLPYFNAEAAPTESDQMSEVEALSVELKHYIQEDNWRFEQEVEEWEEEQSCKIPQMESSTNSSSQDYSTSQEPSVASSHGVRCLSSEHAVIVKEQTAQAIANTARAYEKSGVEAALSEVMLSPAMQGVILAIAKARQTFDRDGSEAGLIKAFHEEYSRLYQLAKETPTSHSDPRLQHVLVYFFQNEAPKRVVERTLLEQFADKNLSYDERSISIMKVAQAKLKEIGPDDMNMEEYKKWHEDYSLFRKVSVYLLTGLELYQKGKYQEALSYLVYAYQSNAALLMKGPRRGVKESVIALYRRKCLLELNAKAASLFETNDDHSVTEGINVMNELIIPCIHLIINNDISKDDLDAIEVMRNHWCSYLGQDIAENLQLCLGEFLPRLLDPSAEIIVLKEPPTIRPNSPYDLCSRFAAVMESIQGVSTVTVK
Briefly: USP28 activity measured using ubiquitin-rhodamine 110 method. In kind it is biochemical. Particulars: for IC50: purified USP28 4 nM, ubiquitin-rhodamine 110 125 nM, 30 min preincubation; for IC50(F)/IC50(E) USP28: ratio of IC50 of related 3-NH2 compound (F) to IC50 of 3-NHMe compound disclosed herein (E). Here is the method: USP28 activity was measured using ubiquitin-rhodamine 110 method.
(§1) Purified USP28 and the ubiquitin-rhodamine 110 substrate used for measuring DUBs activity were both from R&D Systems. Test compounds were first dissolved in DMSO to prepare a 10 mM stock solution, and then the stock solution was diluted with a buffer solution [containing 20 mM Tris-HCl (pH 8.0), 2 mM CaCl2), 3 mM BME, 0.01% Prionix, 0.01% Triton X-100] to the desired concentration (with DMSO content less than or equal to 0.5%). The dilution was mixed well with USP28 (final concentration 4 nM) in a 96-well plate and incubated at room temperature for 30 min, and then added with the substrate (ubiquitin-rhodamine 110) to 125 nM. The final volume of the whole reaction system was 20 μL. The released fluorescence (excitation wavelength 485 nm, emission wavelength 535 nm) was detected immediately on a microplate reader after the addition of the substrate. The inhibitory rate of the test compound against USP28 was calculated according to the following formula: Inhibition %=1−[(test compound+fluorescence value of substrate−fluorescence value of test compound (no substrate))/mean fluorescence value of DMSO control group−fluorescence value of test compound (no substrate)]
According to the inhibitory rates of the test compound against USP28 under different concentrations, IC50 was calculated.

The target in another experiment is T2, USP25 (Homo sapiens, UniProt Q9UHP3).
T2 construct: purchased R&D Systems
T2 sequence (Q9UHP3 1-1055): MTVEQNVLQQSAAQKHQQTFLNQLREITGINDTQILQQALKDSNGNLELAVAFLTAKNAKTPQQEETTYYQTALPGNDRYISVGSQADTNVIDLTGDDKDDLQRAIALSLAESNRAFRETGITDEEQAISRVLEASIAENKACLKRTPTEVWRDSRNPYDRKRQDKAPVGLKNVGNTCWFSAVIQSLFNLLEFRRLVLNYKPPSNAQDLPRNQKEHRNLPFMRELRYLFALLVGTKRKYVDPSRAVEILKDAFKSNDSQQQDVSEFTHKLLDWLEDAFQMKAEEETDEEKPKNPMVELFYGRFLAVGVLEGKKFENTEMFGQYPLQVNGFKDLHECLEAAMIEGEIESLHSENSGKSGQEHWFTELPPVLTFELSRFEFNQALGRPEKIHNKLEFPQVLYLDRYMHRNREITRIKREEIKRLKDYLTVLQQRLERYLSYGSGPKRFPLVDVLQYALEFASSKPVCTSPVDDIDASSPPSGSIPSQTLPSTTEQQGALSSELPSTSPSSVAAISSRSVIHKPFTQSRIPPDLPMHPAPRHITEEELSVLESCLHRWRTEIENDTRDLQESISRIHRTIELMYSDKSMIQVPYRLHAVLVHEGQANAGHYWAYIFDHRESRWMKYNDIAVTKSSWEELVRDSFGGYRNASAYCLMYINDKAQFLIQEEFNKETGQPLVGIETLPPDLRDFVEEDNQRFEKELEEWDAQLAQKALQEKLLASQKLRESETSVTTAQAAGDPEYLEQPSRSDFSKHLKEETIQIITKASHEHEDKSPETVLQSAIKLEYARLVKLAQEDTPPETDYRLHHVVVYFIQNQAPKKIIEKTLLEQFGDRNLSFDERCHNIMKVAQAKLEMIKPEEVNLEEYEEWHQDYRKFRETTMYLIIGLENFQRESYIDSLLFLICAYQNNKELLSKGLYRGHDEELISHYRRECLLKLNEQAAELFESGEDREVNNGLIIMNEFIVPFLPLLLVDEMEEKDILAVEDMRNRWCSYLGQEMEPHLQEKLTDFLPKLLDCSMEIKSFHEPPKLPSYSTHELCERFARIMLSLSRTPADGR
The experiment in a line: USP25 activity measured using ubiquitin-rhodamine 110 method. Particulars: for IC50: purified USP25 15 nM, ubiquitin-rhodamine 110 125 nM, 30 min preincubation, read-out: Inhibitory activity against USP25 (IC50); for IC50(F)/IC50(E) USP25: ratio of IC50 of related 3-NH2 compound (F) to IC50 of 3-NHMe compound disclosed herein (E). In kind it is biochemical. Here is the method:
USP25 activity was measured using ubiquitin-rhodamine 110 method.
as §1, with “Purified USP25” for “Purified USP28”, “with USP25” for “with USP28”, “concentration 15” for “concentration 4”, “the substrate, and the” for “the substrate. The”, “against USP25” for “against USP28”
As in Example 11, according to the inhibitory rates of the test compound against USP25 under different concentrations, IC50 was calculated.

Where [1] appears, read: read-out: Inhibitory activity against USP28 (IC50).
The mark [2] stands for this setting: Inhibitory activity against USP28 (IC50).

Read-outs that look alike come from different tables or passages of the source.

In general, IC50 refers to the point on the concentration scale where inhibition reaches its midpoint.

Turning to `CNc1c(C(=O)NCCc2ccc(N3C[C@H]4CC[C@@H](C3)N4)c(F)c2F)sc2nc(C)ccc12` [Compound I-46], the half-inhibitory concentration (IC50) lay in the range of 0.1 to 1 µM on USP28 (setting [1]) and 5 to 10 µM at USP25.
Take `CNc1c(C(=O)NCCc2cc(F)c(N3C[C@H]4CC[C@@H](C3)N4)c(F)c2F)sc2nc(C)ccc12` [Compound I-47]: the IC50 on USP28 (setting [2]) is under 0.1 µM; on USP25, 5 to 10 µM.
Turning to `CNc1c(C(=O)NCCc2c[nH]c3ccccc23)sc2ncccc12` [Compound I-48], the IC50 is under 0.1 µM at USP28 (setting [1]) and 5 to 10 µM at USP25.
In the case of `CNc1c(C(=O)NCCc2c[nH]c3ccccc23)sc2nc(C)ccc12` [Compound I-49], at USP28 (setting [1]), the IC50 is under 0.1 µM. Also, on USP28, the “IC50(F)/IC50(E) USP28” value came out at 5.0. Moreover, on USP25, the IC50 lay in the range of 1 to 5 µM and the “IC50(F)/IC50(E) USP25” value was over 7.
Regarding `CCc1ccc2c(NC)c(C(=O)NCCc3c[nH]c4ccccc34)sc2n1` [Compound I-50], the IC50 at USP28 (setting [1]) is under 0.1 µM; at USP25, 1 to 5 µM.
On to `CCCc1ccc2c(NC)c(C(=O)NCCc3c[nH]c4ccccc34)sc2n1` [Compound I-51], for which the IC50 at USP28 (setting [1]) was under 0.1 µM; on USP25, 1 to 5 µM.
As to `CCc1nc2sc(C(=O)NCCc3c[nH]c4ccccc34)c(NC)c2cc1C` [Compound I-52], the IC50 is under 0.1 µM at USP28 (setting [1]) and 5 to 10 µM on USP25.
For `CNc1c(C(=O)NCCc2c[nH]c3ccccc23)sc2nc(C)cc(C)c12` [Compound I-53] the same measures were 0.1 to 1 µM and over 10 µM.
Consider `CNc1c(C(=O)NCCc2c[nH]c3ccccc23)sc2nc(C(F)(F)F)ccc12` [Compound I-54], for which the half-inhibitory concentration (IC50) was under 0.1 µM at USP28 (setting [1]) and 5 to 10 µM at USP25.
As for `CNc1c(C(=O)N[C@H](COC)Cc2c[nH]c3ccccc23)sc2nc(C)ccc12` [Compound I-55], the IC50 was 1 to 5 µM on USP28 (setting [1]) and over 10 µM on USP25.
On the same counts, the results for `CNc1c(C(=O)NCCc2coc3ccccc23)sc2nc(C)ccc12` [Compound I-56] are 0.1 to 1 µM and 1 to 5 µM.
As for `CNc1c(C(=O)NCCc2csc3ccccc23)sc2nc(C)ccc12` [Compound I-57], the 50% inhibitory concentration (IC50) at USP28 (setting [1]) was under 0.1 µM; on USP25 it was 5 to 10 µM.
On to `CNc1c(C(=O)NCCc2ccc(OC)c(OC)c2)sc2nc(C)ccc12` [Compound I-58], for which the 50% inhibitory concentration (IC50) at USP28 (setting [1]) is 0.1 to 1 µM; on USP25, over 10 µM. Further, the “IC50(F)/IC50(E) USP28” value at USP28 is listed as 5.0. Besides, on USP25, the “IC50(F)/IC50(E) USP25” value is recorded as over 8.
On to `CCc1nc2sc(C(=O)NCCc3ccc(OC)c(OC)c3)c(NC)c2c(C(F)(F)F)c1C` [Compound I-59], for which the half-maximal inhibitory concentration (IC50) at USP28 (setting [1]) is under 0.1 µM; on USP25, 1 to 5 µM.
Take `CNc1c(C(=O)NCCc2ccc(OC)c(OC)c2)sc2nc(C)cc(C)c12` [Compound I-60]: the IC50 on USP28 (setting [1]) was under 0.1 µM; on USP25 it was 5 to 10 µM.
For `CNc1c(C(=O)N[C@@H](C)Cc2ccc(Br)cc2)sc2nc(C)ccc12` [Compound I-61] the same measures were 1 to 5 µM and over 10 µM.
For the compound `CNc1c(C(=O)N[C@H](C)Cc2ccc(Br)cc2)sc2nc(C)ccc12` [Compound I-62], the results for the IC50 at USP28 (setting [1]) and at USP25 were 0.1 to 1 µM and over 10 µM, respectively.
On the same counts, the results for `CNc1c(C(=O)N[C@@H](C)Cc2ccc(N3C[C@H]4CC[C@@H](C3)N4)cc2)sc2nc(C)ccc12` [Compound I-63] are 0.1 to 1 µM and over 10 µM.
For `CNc1c(C(=O)N[C@H](C)Cc2ccc(N3C[C@H]4CC[C@@H](C3)N4)cc2)sc2nc(C)ccc12` [Compound I-64], the half-inhibitory concentration (IC50) is under 0.1 µM against USP28 (setting [2]) and 0.1 to 1 µM on USP25.
With `CNc1c(C(=O)N[C@H](COC)Cc2ccc(N3C[C@H]4CC[C@@H](C3)N4)cc2)sc2nc(C)ccc12` [Compound I-65], the IC50 at USP28 (setting [1]) was 0.1 to 1 µM; at USP25, 5 to 10 µM.
For `CNc1c(C(=O)N[C@@H](Cc2ccc(N3C[C@H]4CC[C@@H](C3)N4)cc2)C(F)(F)F)sc2nc(C)ccc12` [Compound I-66] the same measures were 0.1 to 1 µM and 0.1 to 1 µM.
On the same counts, the results for `CNc1c(C(=O)NC[C@H](C)c2ccc(N3C[C@H]4CC[C@@H](C3)N4)cc2)sc2nc(C)ccc12` [Compound I-67] are 0.1 to 1 µM and 0.1 to 1 µM.
Turning to `CNc1c(C(=O)NC[C@@H](C)c2ccc(N3C[C@H]4CC[C@@H](C3)N4)cc2)sc2nc(C)ccc12` [Compound I-68], the IC50 on USP28 (setting [1]) and at USP25 was 0.1 to 1 µM in each case.
Regarding `CNc1c(C(=O)NC[C@@H](F)c2ccc(N3C[C@H]4CC[C@@H](C3)N4)cc2)sc2nc(C)ccc12` [Compound I-69], the values for the concentration for half-maximal inhibition (IC50) against USP28 (setting [2]) and at USP25 were under 0.1 µM and 0.1 to 1 µM, respectively.
`CNc1c(C(=O)NCCc2ccc(N3C[C@H]4CC[C@@H](C3)N4)cc2)sc2nccnc12` [Compound I-70]: the half-inhibitory concentration (IC50) is 1 to 5 µM at USP28 (setting [1]) and over 10 µM at USP25.

The values above are taken from US12486284B2, “Ubiquitin-specific protease inhibitor and preparation method therefor and use thereof” (CHASER THERAPEUTICS, INC., priority 2019, dated 2025).
